Assay results from PubChem BioAssay (NCI).
“And” between values parts separate entries of the source, which are not always exact repeats. Identical values can stand only once.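 48-hour exposure; five concentrations; linearly interpolated endpoints. TGI denotes the concentration required for complete inhibition of growth.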

How the values were obtained:
Assay in all cases: NCI tumour cell line growth inhibition, 48 h
IGROV1 ovarian = test system: IGROV1 ovarian
MDA-MB-435 = test system: MDA-MB-435
NCI-H226 lung = test system: NCI-H226 lung
NCI-H522 lung = test system: NCI-H522 lung
RXF 393 renal = test system: RXF 393 renal
SF-295 CNS = test system: SF-295 CNS
SK-MEL-28 melanoma = test system: SK-MEL-28 melanoma
SK-MEL-5 melanoma = test system: SK-MEL-5 melanoma
UO-31 renal = test system: UO-31 renal
HS 578T breast = test system: HS 578T breast

Compound	TGI (IGROV1 ovarian)	TGI (MDA-MB-435) [µM]	TGI (NCI-H226 lung)	TGI (NCI-H522 lung) [µM]	TGI (RXF 393 renal)	TGI (SF-295 CNS) [µM]	TGI (SK-MEL-28 melanoma) [µM]	TGI (SK-MEL-5 melanoma)	TGI (UO-31 renal) [µM]	TGI (HS 578T breast) [µM]
COC(=O)c1sc2ncc3c(c2c1N)CCCCCC3	> 100 µM	> 100	> 100 µM	> 100	> 100 µM	> 100	> 100	> 100 µM	> 100	
CC(C)c1cc(CN(C)C)c(O)c(C(C)(C)C)c1	> 100 µM	> 100	42.5 µM	38.1	37.2 µM	37.4	69.3	29.9 µM	58	> 100
COc1ccc2nc3ccc(OC)cc3c(SCc3ccc([N+](=O)[O-])cc3)c2c1	> 100 µM	> 100	> 100 µM	> 100	> 100 µM	> 100	> 100		> 100	
CN(CCCCN1CCCC1)CCCN(C)C(=O)Cc1ccc(Cl)c(Cl)c1	45.2 µM	10.2	51.9 µM	27.9	29.6 µM	38.8	3.51	23.8 µM	3.72	59.6
COc1c(C)c2c(c(=O)c3c(C)cccc3n2C)c2c1c(=O)c1c(C)cccc1n2C	> 10 µM	> 10	> 10 µM	> 10	> 10 µM	> 10	> 10	> 10 µM	> 10	> 10
CN(C)c1ccc(/C=c2/c3ccccc3n3nc4ccccc4c23)cc1	> 100 µM	> 100		31.9	66.8 µM	70.6	> 100	73.5 µM	> 100	> 100
Cc1nc(Nc2ccccc2Cl)sc1C(=O)CC(=O)C(=O)Nc1c(Cl)cccc1Cl	63.5 µM	50	49.7 µM	60.4	92.9 µM	> 100	85.6	> 100 µM	86.1	> 100
Nc1ccc2nc(Nc3ccc(F)cc3)cnc2c1			> 100 µM	> 100		> 100	> 100	> 100 µM	> 100	
c1ccc(N=C(Nc2ccccc2)N2CCCCC2)cc1	> 100 µM	> 100	> 100 µM	> 100		> 100	> 100		> 100	> 100
Cc1ccc(C)n1-n1c(Cc2ccccc2)n[nH]c1=O	> 100 µM	> 100	> 100 µM	> 100	> 100 µM	> 100	> 100	> 100 µM	> 100	> 100
O=C1C(N2CCNCC2)=C(Cl)C(=O)c2ncccc21	> 10 µM	> 10	> 10 µM		> 10 µM	> 10	> 10	> 10 µM		> 10
N=C(N)N1CCC(N2CCOCC2)CC1	> 100 µM	> 100	> 100 µM		> 100 µM	> 100	> 100	> 100 µM	> 100	> 100
CC(C)(C)c1cc(-c2cc(C(C)(C)C)n(-c3ccccc3)n2)nn1-c1ccccc1	> 100 µM	> 100	> 100 µM	> 100	> 100 µM	> 100	> 100	> 100 µM	> 100	
Nc1nc(N)c2c(n1)NC(=O)c1c(c3ccccc3n1Cc1ccc(Cl)cc1)C2	> 100 µM	91.1	> 100 µM		33.4 µM	84.7	> 100	28.6 µM	> 100	> 100
Cc1nc2ccc(S(=O)(=O)Nc3ccccc3)cc2c(=O)n1NC(=O)CNc1ccccc1	> 100 µM	> 100	> 100 µM	> 100		> 100	> 100		> 100	> 100
COc1ccc(C(=O)Cn2c(C(=O)/C=C/c3ccco3)nc3ccccc32)cc1	> 100 µM	> 100	> 100 µM		> 100 µM		> 100	> 100 µM	> 100	63.8
CNC(=O)c1n[nH]nc1Sc1c([N+](=O)[O-])ncn1C	> 100 µM	> 100		> 100	> 100 µM	> 100	> 100	> 100 µM	> 100	> 100
c1ccc(Cc2nc(Cc3n[nH]c(Cc4ccccc4)n3)n[nH]2)cc1	> 100 µM	> 100		> 100	> 100 µM	> 100	> 100	> 100 µM	> 100	> 100
O/C(=C\c1nc2ccccc2nc1/C=C(\O)c1ccc(Cl)cc1)c1ccccc1	> 100 µM	> 100	> 100 µM	> 100	> 100 µM	> 100	> 100	> 100 µM	> 100	
Cc1nc2sc3ccccc3n2c(=O)c1N=Nc1ccc(Br)cc1	> 100 µM	> 100	> 100 µM	> 100	> 100 µM	> 100	> 100	> 100 µM		> 100
CS/C1=C(\c2ccc(C)cc2)N(c2ccccc2)C(=O)C(=O)N(c2ccccc2)/C(c2ccc(C)cc2)=C(/SC)SS1	> 100 µM	> 100		> 100		> 100	> 100		> 100	
CSc1nc(Cl)c(Br)c(Sc2nc(N)nc3nc[nH]c23)n1	28.2 µM		22.3 µM	3.45		17.7	24	26.4 µM	17	
O=C(O)CN1CCN2CCOCCOCCN(CC1)CCN(CC(=O)O)CC2	> 100 µM	> 100	> 100 µM	> 100		> 100	> 100	> 100 µM	> 100	> 100
Cc1ccc2c(=O)c3cccc(CC(=O)O)c3[nH]c2c1C	> 100 µM	> 100	> 100 µM	> 100		> 100	> 100	> 100 µM	> 100	> 100

Compound	TGI (IGROV1 ovarian)	TGI (MDA-MB-435) [µM]	TGI (NCI-H226 lung)	TGI (NCI-H522 lung) [µM]	TGI (RXF 393 renal)	TGI (SF-295 CNS) [µM]	TGI (SK-MEL-28 melanoma) [µM]	TGI (SK-MEL-5 melanoma)	TGI (UO-31 renal) [µM]	TGI (HS 578T breast) [µM]
O=C(CCc1ccccc1)ON1C(=S)NC(c2ccccc2)(c2ccccc2)C1=S	82.7 µM	> 100	93.1 µM		93 µM	> 100	> 100	40.6 µM	> 100	> 100
O=C1c2ccccc2C(=O)c2c(Nc3ccc4c5c(cccc35)C(=O)c3ccccc3-4)cccc21	> 100 µM	> 100	> 100 µM	> 100	> 100 µM	> 100		> 100 µM	> 100	> 100
COC(=O)C1(c2cc3ccccc3n2S(=O)(=O)c2ccccc2)CC2C=CC1NC2 (stereo not given)	3.22 µM	3.86	21.4 µM		3.5 µM	10.2	8.49	16.7 µM	2.86	> 25.9
O=C(CNc1cccc([N+](=O)[O-])c1)Nn1c(-c2ccccc2)nc2ccccc2c1=O	0.482 µM		0.512 µM		1.08 µM	3.28	3.04	2.31 µM	4.12	3.6
CC(C)(C)c1cc(C2NCCO2)cc(C(C)(C)C)c1O (stereo not given)	> 100 µM	> 100	> 100 µM	> 100	37.8 µM	> 100	> 100	> 100 µM		> 100
N#Cc1c(Cl)cccc1Oc1ccc(S(=O)(=O)/N=C(\NN)Nc2ccc(Cl)cc2)cc1	43.4 µM		60.9 µM		47.1 µM	70.3	> 100	31.3 µM	91.5	
CC(=O)OCC(OC(C)=O)C(OC(C)=O)C(OC(C)=O)C(C=NN(C(C)=O)S(=O)(=O)c1ccc(/C=C2\NC(=O)N(C)C2=O)cc1)OC(C)=O (stereo not given)	75.2 µM and > 100 µM	> 100	96.5 µM and > 100 µM	72.9	34.4 µM and 52.1 µM	> 100		90.3 µM and 86.2 µM	> 100	> 100
O=C(NC(CS)C(=O)O)c1cccc2c(=O)c3ccccc3[nH]c12 (stereo not given)	> 100 µM	> 100	> 100 µM	> 100		> 100	> 100	> 100 µM	> 100	> 100
Cc1ccc2ccccc2c1NC1=NCCO1	> 100 µM	> 100	74.5 µM		> 100 µM	> 100	> 100	> 100 µM	> 100	> 100
CC(C)(C)OC(=O)c1cnc(Cl)cn1	44.7 µM	> 100	> 100 µM	2.78		> 100	> 100	> 100 µM	18.5	> 100
COc1cc(C2c3cc(O)c(OC)cc3C3OCC2C3CO)ccc1O (stereo not given)		> 100	> 100 µM	> 100	> 100 µM	> 100	> 100	> 100 µM	> 100	
C=C(C)C1Cc2c(cc(O)c3c(=O)c4c(oc23)C(O)Oc2cc(OC)c(OC)cc2-4)O1 (stereo not given)	> 10 µM	> 10	> 10 µM		> 10 µM	> 10	> 10		> 10	
C#CCOc1c(C(=O)OCC)c(=O)n(C)c2ccccc12	> 100 µM		> 100 µM	> 100		> 100	> 100	> 100 µM	> 100	
O=C1c2ccccc2NC(=O)C2C1C(c1ccccc1)CC2(O)c1ccccc1 (stereo not given)	> 100 µM	> 100			> 100 µM	> 100	> 100	> 100 µM		98.3
CCN1CCN(c2ccc(Nc3ccnc4ccc5c(nnn5C)c34)cc2)CC1	32.6 µM	17.9		6.21	23.4 µM	22.7	23.9	23 µM	25.7	31.9
CC(OC(C)(C)C)[C@H](NC(=O)OC(C)(C)C)C(=O)O (stereo not given in full)	> 100 µM	> 100	> 100 µM	> 100		> 100		> 100 µM	> 100	> 100
O=C1CCC(=O)N1Cc1ccccc1N=[N+]([O-])c1ccccc1CN1C(=O)CCC1=O	> 100 µM			> 100	> 100 µM	> 100	> 100	> 100 µM	> 100	
N#CN=C(N)NC(=O)/C=C/C=C/c1ccc(Cl)cc1	> 100 µM		> 100 µM	> 100	> 100 µM	> 100	> 100	> 100 µM	> 100	
CC(=O)OCC1OC(n2c(-c3ccccc3)c(C(C)=O)c(-c3ccc(Cl)cc3)c(C#N)c2=S)C(OC(C)=O)C(OC(C)=O)C1OC(C)=O (stereo not given)	> 100 µM	> 100	> 100 µM	> 100	> 100 µM	> 100	> 100	> 100 µM		
Cc1ccc(NC(=O)CSc2nc(C)nc3c2sc(=S)n3-c2ccccc2)cc1	> 10 µM	> 10	9.43 µM	> 10	9.17 µM	> 10	> 10	> 10 µM		6.3
CC(C)=NN/C(=N\S(=O)(=O)c1ccc(C)cc1)Nc1ccc(Cl)cc1	> 100 µM	> 100	> 100 µM	> 100		> 100	> 100	> 100 µM	> 100	> 100
Nc1nc(N)c(NC(=O)CCCO)c(=O)[nH]1	> 100 µM	> 100	> 100 µM	> 100	> 100 µM	> 100		> 100 µM	> 100	> 100
O=C1CC(O)c2c(Br)sc(Br)c21 (stereo not given)	31.9 µM	18.5		29.4	5.51 µM	32	30.1	34.5 µM	7.19	55.9
